The values below come from US9162988B2, “Therapeutic or prophylactic agent for allergic dermatitis” (Toray Industries, Inc., priority 2007, dated 2015).

pIC50: −log10 of the molar value. Counter-ions that a name gives are not always drawn.

The subject of one test is Jurkat cells. Put plainly: Inhibitory effect on leukocyte functions: adhesion of Jurkat cells to ligand-expressing cells or ligand-immobilized plate. In kind it is cell-based. Particulars: Homo sapiens, 0.5 h, read-out: IC50 (concentration at which the number of adherent cells is reduced by 50%). On the procedure: Jurkat cells which are a cell line originated from human acute T cell lymphoma were allowed to react with BCECF-AM at 37° C. for 20 minutes to fluorescently label the cells. The fluorescently labelled Jurkat cells were allowed to react with ligand-expressing cells or with a ligand-immobilized plate at 37° C. for 30 minutes. After removing non-adherent cells by washing, 1% NP40 was added to lyse the adherent cells, and fluorescence intensity was measured with Cytofluor 2300 (Millipore). From the obtained fluorescence intensity, the number of adherent cells was calculated. Each test compound was reacted with the Jurkat cells before the beginning of the adhesion reaction. In Table 18, the IC50 of each compound (i.e. the concentration at which the number of adherent cells is reduced by 50%) is shown.
For the compound `O=C(NC(C/C=C/c1ccc(N(CC2CC2)c2ncccn2)cc1)C(=O)O)c1c(Cl)cccc1Cl` (centres unmarked) [Example 53, (E)-5-[4-(Cyclopropylmethyl-pyrimidin-2-ylamino)phenyl]-2-(2,6-dichlorobenzamido)pent-4-enoic acid sodium salt], the pIC50 is 6.92. For the compound `CCCCN(c1ccc(/C=C/CC(NC(=O)c2c(Cl)cccc2Cl)C(=O)O)cc1)c1ncccn1` (centres unmarked) [Example 37, (E)-5-(4-Butyl-pyrimidin-2-yl-amino)-phenyl]-2-(2,6-dichlorobenzamido)-pent-4-enoic acid sodium salt], the pIC50 was 6.80. Consider `CC(C)CN(c1ccc(/C=C/CC(NC(=O)c2c(Cl)cccc2Cl)C(=O)O)cc1)c1ncccn1` (centres unmarked) [Example 55, (E)-2-(2,6-Dichlorobenzamido)-5-[4-(isobutyl-pyrimidin-2-ylamino)phenyl]pent-4-enoic acid sodium salt], for which the pIC50 was 6.38.

The subject of the next test is BLAB/c mouse. Put plainly: Inhibitory effect on skin swelling response in mouse allergic dermatitis model. In kind it is in vivo. Particulars: IgE anti-DNP sensitized mouse, DNFB-induced; 50 mg/kg orally before the induction; 24 hours after administration. On the procedure: This method was carried out in accordance with the literature “Inflamm. Res., 47, 506-511 (1998)”.
To each BLAB/c mouse (female, 7 weeks old, JAPAN CHARLES RIVER), mouse IgE anti-DNP antibody (2.5 mg/kg, SEIKAGAKU CORPORATION) was intravenously administered to passively sensitize the mouse. Twenty four hours later, 20 μL of 0.38% 2,4-dinitrofluorobenzene (DNFB, SIGMA) dissolved in acetone:olive oil (4:1) was applied to the auricle of the sensitized mouse to induce inflammation. The thickness of the auricle was measured with time till 24 hours after the induction with Digimatic Indicator (Mitutoyo), and the ear swelling ratio was calculated according to the following equation: Ear Swelling Ratio (%)=(A−B)/B×100
A: Thickness of the right auricle after the induction
B: Thickness of the right auricle before the induction
Each test compound was dissolved in phosphate buffered saline and orally administered at a dose of 50 mg/kg before the induction.
As to `COC1(c2ccc(/C=C/C[C@H](NC(=O)c3c(Cl)cccc3Cl)C(=O)[O-])cc2)CCOCC1.[Na+]` [Example 78, (S,E)-2-(2,6-Dichlorobenzamido)-5-[4-(4-methoxytetrahydropyran-4-yl)-phenyl]pent-4-enoic acid sodium salt], the “Inhibition ratio of the ear swelling (swelling response of the auricle)” value (“Inhibition ratio of the ear swelling” below) is 62.5%.

For the compound `CN(c1ccc(/C=C/C[C@H](NC(=O)c2c(Cl)cccc2Cl)C(=O)[O-])cc1)c1ncccn1.[Na+]` [Example 81, (S,E)-2-(2,6-Dichlorobenzamido)-5-[4-(methyl-pyrimidin-2-ylamino)phenyl]pent-4-enoic acid sodium salt], the “Inhibition ratio of the ear swelling” value worked out at 97.9%. Take `COCCOc1ccc(/C=C/CC(NC(=O)c2ccc(CNS(=O)(=O)c3cc(Cl)cc(Cl)c3)cc2)C(=O)[O-])cc1.[Na+]` (centres unmarked) [(XXII), (E)-2-(4-((3,5-dichlorophenylsulfonamide)methyl)benzamide)-5-(4-(2-methoxyethoxy)phenyl)pent-4-enoic acid sodium salt, reference compound]: the “Inhibition ratio of the ear swelling” value stood at 2.3%. Turning to `COC1(c2ccc(/C=C/CC(NC(=O)c3c(Cl)cccc3Cl)C(=O)O)cc2)CCOCC1` (centres unmarked) [Example 4, (E)-2-(2,6-Dichlorobenzamido)-5-[4-(4-methoxytetrahydropyran-4-yl)-phenyl]pent-4-enoic acid], the “Inhibition ratio of the ear swelling” value is reported as 79.8%. On the same count and under the same terms, in the case of `CC(C)N(c1ccc(/C=C/C[C@H](NC(=O)c2c(Cl)cccc2Cl)C(=O)O)cc1)c1ncccn1` [Example 83, (S,E)-2-(2,6-Dichlorobenzamido)-5-[4-(isopropyl-pyrimidin-2-ylamino)phenyl]pent-4-enoic acid] it was 57.4%. Same read-out and setting: in the case of `CC(C)N(c1ccc(/C=C/C[C@H](NC(=O)c2c(Cl)cccc2Cl)C(=O)[O-])cc1)c1ncccn1.[Na+]` [Example 84, (S,E)-2-(2,6-Dichlorobenzamido)-5-[4-(isopropyl-pyrimidin-2-ylamino)phenyl]pent-4-enoic acid sodium salt] it was 66.9%. On the same count and under the same terms, in the case of `CN(c1ccc(/C=C/CC(NC(=O)c2c(Cl)cccc2Cl)C(=O)O)cc1)c1ncccn1` (centres unmarked) [Example 22, (E)-2-(2,6-Dichlorobenzamido)-5-[4-(methyl-pyrimidin-2-ylamino)phenyl]pent-4-enoic acid] it was 84.7%; in that of `CN(c1ccc(/C=C/C[C@H](NC(=O)c2c(Cl)cccc2Cl)C(=O)O)cc1)c1ncccn1` [Example 80, (S,E)-2-(2,6-Dichlorobenzamido)-5-[4-(methyl-pyrimidin-2-ylamino)phenyl]pent-4-enoic acid], 86.3%; in that of `CCOC1(c2ccc(/C=C/CC(NC(=O)c3c(Cl)cccc3Cl)C(=O)O)cc2)CCOCC1` (centres unmarked) [Example 6, (E)-2-(2,6-Dichlorobenzamido)-5-[4-(4-ethoxytetrahydropyran-4-yl)-phenyl]pent-4-enoic acid], 91.2%.

For `CC(C)N(c1ccc(/C=C/CC(NC(=O)c2c(Cl)cccc2Cl)C(=O)O)cc1)c1ncccn1` (centres unmarked) [Example 28, (E)-2-(2,6-Dichlorobenzamido)-5-[4-(isopropyl-pyrimidin-2-ylamino)phenyl]pent-4-enoic acid], the “Inhibition ratio of the ear swelling” value amounted to 98.5%. On the same count and under the same terms, in the case of `COC1(c2ccc(/C=C/C[C@H](NC(=O)c3c(Cl)cccc3Cl)C(=O)O)cc2)CCOCC1` [Example 77, (S,E)-2-(2,6-Dichlorobenzamido)-5-[4-(4-methoxytetrahydropyran-4-yl)-phenyl]pent-4-enoic acid] it was 85.8%.
